From paper PMC4761891, “CD36 is a co-receptor for hepatitis C virus E1 protein attachment” (Scientific Reports, 2016)
Where two headings read alike, the source gives them in different places.

Key:
HCV [1] = assay: Anti-HCV activity in HCV-infected Huh7.5 cells (intracellular HCV RNA, qRT-PCR); format: cell-based, hepatitis C virus; conditions: for EC50: Hepatitis C virus, read-out: half maximal effective concentration (EC50) against HCV at RNA level; for selective index (SI): Huh7.5 cells, cytotoxicity by MTT assay vs anti-HCV EC50, 72 hrs
[2] = test system: HCV subgenomic replicon I 377-3′del.S in GS4.3 cells; assay: HCV subgenomic replicon replication in GS4.3 cells; format: cell-based, hepatitis C virus; conditions: 72 hrs incubation, intracellular RNA; VX-950 at 1.0 μM
Method: Huh7.5 cells infected with HCV (45 IU/cell), or GS4.3 replicon cells were treated with different concentration of compounds. After 72 hrs, intracellular RNA was extracted with RNeasy Mini Kit; total intracellular proteins were extracted with PER. HCV RNA and proteins were analyzed with qRT-PCR and WB, respectively. Compound cytotoxicity in Huh7.5 cells or GS4.3 replicon cells were evaluated at 72 hrs with the tetrazolium (MTT, Amresco) assay.

[3] = test system: Influenza virus BV/Shenzhen/155/2005; assay: microbe, parasite or virus in culture; conditions: unidentified influenza virus, MDCK
[4] = Cytotoxicity in HepG2.2.15 cells; format: cell-based; conditions: human, HBV test
[5] = test system: herpes simplex virus type 1 (HSV-1); assay: Activity against HSV-1 in Vero cells; format: cell-based; conditions: Human alphaherpesvirus 1; HSV-1, Vero
HCV [6] = assay: Influence of CD36 level on the anti-HCV activity of SSO; format: cell-based, hepatitis C virus; conditions: 5 μM SSO for 2 hrs, HCV 150 IU/cell, RNA in 96 hrs, P < 0.01
Method: Intracellular HCV RNA was analyzed with qRT-PCR in 96 hrs.

[7] = test system: Coxsackie B virus (CoxV-B1); assay: microbe, parasite or virus in culture; conditions: Vero
SR-BI = target: T1, SR-BI (Homo sapiens, UniProt Q8WTV0); assay: BIAcore surface plasmon resonance binding to SR-BI-HA; conditions: immobilised SR-BI-HA
T1 construct: made in house; host or cells: 293T/17 cells
T1 sequence (Q8WTV0 1-509 isoform Q8WTV0-2): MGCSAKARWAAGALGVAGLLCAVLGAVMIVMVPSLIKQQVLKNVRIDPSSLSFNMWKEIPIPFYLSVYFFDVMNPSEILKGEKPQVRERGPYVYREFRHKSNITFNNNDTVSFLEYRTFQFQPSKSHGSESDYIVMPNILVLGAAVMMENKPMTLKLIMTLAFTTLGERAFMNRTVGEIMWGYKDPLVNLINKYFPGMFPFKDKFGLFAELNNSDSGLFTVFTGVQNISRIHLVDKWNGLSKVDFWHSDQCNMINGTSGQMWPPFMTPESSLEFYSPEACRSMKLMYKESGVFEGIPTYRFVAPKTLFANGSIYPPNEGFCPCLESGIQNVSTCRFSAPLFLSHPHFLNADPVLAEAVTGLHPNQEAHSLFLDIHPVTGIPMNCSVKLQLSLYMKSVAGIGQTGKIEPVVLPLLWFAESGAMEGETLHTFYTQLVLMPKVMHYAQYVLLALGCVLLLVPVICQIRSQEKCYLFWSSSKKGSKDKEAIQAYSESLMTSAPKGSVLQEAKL
Method: The 293T/17 cells were transfected with CD36-HA or SR-BI-HA plasmid using HD transfection reagent. At 48 hrs post transfection, cells were harvested and protein CD36-HA or SR-BI-HA was purified with Pierce Anti-HA Agarose (Thermo Scientific) and then desalinated with Zeba Spin Desaling Columns (Thermo Scientific). The concentration of purified proteins was quantified with Pierce BCA Protein Assay Kit (Thermo Scientific). Then, surface plasmon resonance experiments were performed on a BIAcore biosensor system (BIAcore T100). In brief, the carboxymethylated surface of series S sensor chip CM5 (GE Healthcare Bio-Sciences) was first activated with a mixture of N-hydroxysuccinimide (NHS) and 1-ethyl-3-(3- dimethylaminopropyl) carbodiimide hydro-chloride (EDC) (BIAcore AB). Subsequently, 200 μL of purified CD36-HA or SR-BI-HA at a concentration of 80 μg/mL was injected into the flow cell (FC2) for immobilization on the sensor surface. […] Compound VX-950 was used as negative control. Data were evaluated using the software BIAcore T100 Evaluation (BIAcore AB).

hepatitis B virus (HBV) = assay: Activity against HBV in HepG2.2.15 cells; format: cell-based
[8] = Cytotoxicity in MDCK cells; format: cell-based; conditions: dog, Influenza virus A/Tianjin-Jinnan/15/2009 test
MDCK cells = assay: Cytotoxicity in MDCK cells; format: cell-based; conditions: Influenza virus BV/Shenzhen/155/2005 test
[9] = Cytotoxicity in Vero cells; format: cell-based; conditions: African green monkey
[10] = test system: Influenza virus A/Tianjin-Jinnan/15/2009; assay: microbe, parasite or virus in culture; conditions: unidentified influenza virus, MDCK
[11] = test system: hepatitis B virus, influenza virus, herpes simplex virus and Coxsackie virus; assay: Activity of CD36 inhibitors against other viruses; format: cell-based; conditions: HepG2.2.15, MDCK and Vero cell cultures
HCV [12] = assay: Inhibition of HCV entry (treatment before, during or after infection); format: cell-based, hepatitis C virus; conditions: Huh7.5 cells
Description: Then, the cells were washed and cultured with fresh medium. Intracellular HCV RNA and proteins were detected in 72 hrs.

KM mice = assay: Safety of SSO in vivo (single oral dose, KM mice); conditions: single oral dose up to 1000 mg/kg, day 7
Description: KM mice at a weight of 21.0 ± 1.0 g were from Laboratory Animal Center, Academy of Military Medical Sciences, Beijing, China. The mice were randomly divided into four groups with 10 mice in each (♂ × 5, ♀ × 5). […] Body weight as well as survival was monitored. Seven days later, blood samples were taken for liver and kidney function examination.

HCV particle = assay: Interaction between HCV and compounds (direct inactivation of HCV particles); format: cell-based, hepatitis C virus; conditions: 1 hr room temperature, Huh7.5, 72 hrs; for HCV inhibitory activity, Group 1 (treated HCV stock, no ultracentrifugation): SSO 10 μM or VX-950 0.5 μM, P < 0.01
CD36 = target: T2, CD36 (Homo sapiens, UniProt P16671); assay: BIAcore surface plasmon resonance binding to CD36-HA; conditions: immobilised CD36-HA; SSO 50, 100, 200, 500 μM
T2 construct: made in house; host or cells: 293T/17 cells

HCV [13] = assay: Time-of-addition assay; format: cell-based, hepatitis C virus; conditions: 10 nM bafilomycin A1, Huh7.5, HCV 300 IU/cell
Method: Huh7.5 cells were infected with HCV (300 IU/cell) and incubated at 4 °C for 2 hrs, the cells were then washed with cold PBS and shifted to 37 °C (set as 0 hr time point) to initiate synchronous infection. […] Intracellular HCV RNA was detected after 72 hrs incubation. Inhibitory ratio was calculated as % relative to infectious control (0%). Fitted lines represent sigmoidal time-dependent curves.

T2 sequence (P16671 whole entry): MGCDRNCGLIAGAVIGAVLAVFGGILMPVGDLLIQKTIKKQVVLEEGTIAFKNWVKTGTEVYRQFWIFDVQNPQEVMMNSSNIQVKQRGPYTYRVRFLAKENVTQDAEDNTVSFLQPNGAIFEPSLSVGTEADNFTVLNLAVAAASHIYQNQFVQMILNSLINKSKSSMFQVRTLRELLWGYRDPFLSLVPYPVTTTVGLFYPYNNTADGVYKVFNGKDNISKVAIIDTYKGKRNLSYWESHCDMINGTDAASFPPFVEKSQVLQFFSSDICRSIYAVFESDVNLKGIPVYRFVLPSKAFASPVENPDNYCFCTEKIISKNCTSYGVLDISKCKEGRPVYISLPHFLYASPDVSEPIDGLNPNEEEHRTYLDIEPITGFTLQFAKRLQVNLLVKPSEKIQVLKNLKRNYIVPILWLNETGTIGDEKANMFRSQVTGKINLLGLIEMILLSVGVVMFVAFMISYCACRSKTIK

For `COc1cc(O)c(/C=N/NC(=O)c2cc3ccccc3s2)c(OC)c1` [AP5055], the EC50 (HCV [1]; Huh7.5 cells infected with HCV (45 IU/cell), 72 hrs, intracellular HCV RNA) was 0.39 ± 0.16 µM and the “selective index (SI)” value (HCV [1]) was 25.

With `CCCCCCCC/C=C\CCCCCCCC(=O)ON1C(=O)CC(S(=O)(=O)O)C1=O` (centres unmarked) [SSO, sulfo-N-succinimidyl oleate] the “replication of the HCV replicon in GS4.3 cells” value [2] was “did not inhibit the replication”, the EC50 [3] was 200 µM and the EC50 (HCV [1]; Huh7.5, 72 h) was 0.31 ± 0.09 µM. The “anti-HCV efficacy in combination with IFN-α” value (HCV [1]; SSO 1.0 μM + IFN-α 1.0 U/mL, HCV-infected Huh7.5 cells, 72 hrs, P < 0.05 vs IFN-α alone) was “enhanced anti-HCV efficacy”, the “anti-HCV efficacy in combination with telaprevir (VX-950)” value (HCV [1]; SSO 1.0 μM + VX-950 0.1 μM, HCV-infected Huh7.5 cells, 72 hrs, P < 0.05 vs telaprevir alone) was “enhanced anti-HCV efficacy” and the CC50 [4] was greater than 100 µM. For the same compound, the EC50 [5] was greater than 200 µM, the “anti-HCV activity of SSO in cells transfected with CD36 plasmid” value (HCV [6]) was “decreased” and the “anti-HCV activity of SSO in cells transfected with siRNA for CD36” value (HCV [6]) was “increased”. The EC50 [7] was greater than 66.7 µM, the “direct binding to SR-BI (BIAcore)” value (SR-BI) was “no binding on SR-BI” and the EC50 (hepatitis B virus (HBV)) was greater than 100 µM. The CC50 [8] was greater than 200 µM, the CC50 (MDCK cells) was greater than 200 µM and the CC50 ([9]; CoxV-B1 test) was 111 µM. For the same compound, the CC50 ([9]; HSV-1 test) was greater than 200 µM, the EC50 [10] was 79 µM and the “inhibitory activity on hepatitis B virus, influenza virus, herpes simplex virus and Coxsackie virus” value [11] was “no inhibitory activity”. For the same compound, the “HCV replication, treatment after infection” value (HCV [12]; 2 hrs treatment after infection, detected in 72 hrs, P > 0.05) was “no inhibitory effect”, the “HCV replication, treatment before and during HCV infection” value (HCV [12]; 2 hrs treatment, HCV RNA and proteins in 72 hrs, P < 0.01) was “strongly inhibit HCV replication” and the “liver and kidney function: blood GOT, GPT, BUN and CRE” value (KM mice) was “abnormality was not detected”. For the same compound, the “HCV inhibitory activity, Group 1 (treated HCV stock, no ultracentrifugation)” value (HCV particle) was “showed HCV inhibitory activity” and the “infectivity of treated virus, Group 2 (after ultracentrifugation)” value (HCV particle; SSO 10 μM, ultracentrifuged, P > 0.05) was “infectivity equal to that of untreated control”.

With `CCC[C@H](NC(=O)[C@@H]1[C@H]2CCC[C@H]2CN1C(=O)[C@@H](NC(=O)[C@@H](NC(=O)c1cnccn1)C1CCCCC1)C(C)(C)C)C(=O)C(=O)NC1CC1` [VX-950, telaprevir] the “replication of the HCV replicon in GS4.3 cells” value [2] was “strong inhibitory effect”, the “direct binding to CD36 (BIAcore)” value (CD36) was “did not bind onto CD36” and the “direct binding to SR-BI (BIAcore)” value (SR-BI) was “no binding on SR-BI”. The “HCV inhibitory activity, Group 1 (treated HCV stock, no ultracentrifugation)” value (HCV particle) was “showed HCV inhibitory activity”.

In the case of `COc1ccc2cc[n+](CCc3ccccc3)cc2c1O` [W-9], the EC50 (HCV [1]; Huh7.5, 72 h) is reported as 6.61 ± 3.18 µM and the “selective index (SI)” value (HCV [1]) is reported as 20.

With `CO/C1=C\C(C)=C\[C@@H](C)[C@@H](O)[C@@H](C)C/C(C)=C/C=C/[C@H](OC)[C@@H]([C@@H](C)[C@@H](O)[C@H](C)[C@@]2(O)C[C@@H](O)[C@H](C)[C@@H](C(C)C)O2)OC1=O` [bafilomycin A1] the “time HCV remained sensitive to the inhibitor after shift to 37 °C” value (HCV [13]) was 3 h.
